Test results: patent publication US10584128B2, “Bicyclic dihydropyrimidine-carboxamide derivatives as Rho-Kinase inhibitors” (CHIESI FARMACEUTICI S.p.A., priority 2016, dated 2020)
pKi: −log10 of the molar value.

Key:
[1] = target: Rho kinase 1 (Homo sapiens, UniProt Q13464); test: In vitro Rho kinase inhibitory activity assay (ADP-Glo kit, Myelin Basic Protein substrate); type: biochemical; details: 10 μM ATP, 25° C., read-out: ROCK1 inhibitory activity (Ki, range of activity)
Method: (§1) The effectiveness of compounds of the present invention to inhibit Rho kinase activity can be determined in a 10 μl assay containing 40 mM Tris pH7.5, 20 mM MgCl2 0.1 mg/ml BSA, 50 μM DTT and 2.5 μM peptide substrate (Myelin Basic Protein) using an ADP-Glo kit (Promega). Compounds were dissolved in DMSO such that the final concentration of DMSO was 1% in the assay. All reactions/incubations are performed at 25° C. Compound (2 ul) and either Rho kinase 1 or 2 (4 μl) were mixed and incubated for 30 mins. Reactions were initiated by addition of ATP (4 μl) such that the final concentration of ATP in the assay was 10 μM. After a 1 hour incubation 10 μl of ADP-Glo Reagent was added and after a further 45 minute incubation 20 ul of Kinase Detection Buffer was added and the mixture incubated for a further 30 minutes. The luminescent signal was measured on a luminometer. […] Compounds were tested in dose-response format and the inhibition of kinase activity was calculated at each concentration of compound. To determine the IC50 (concentration of compound required to inhibit 50% of the enzyme activity) data were fit to a plot of % inhibition vs Log10 compound concentration using a sigmoidal fit with a variable slope and fixing the maximum to 100% and the minimum to 0%. To determine the Ki values the Cheng-Prusoff equation was utilized (Ki=IC50/(1+[S]/Km).

[2] = target: Rho kinase 2 (Homo sapiens, UniProt O75116); test: as above; type: biochemical; details: 10 μM ATP, 25° C., read-out: ROCK2 inhibitory activity (Ki, range of activity)
Method: as §1

Sequence of Rho kinase 2 (O75116 whole entry): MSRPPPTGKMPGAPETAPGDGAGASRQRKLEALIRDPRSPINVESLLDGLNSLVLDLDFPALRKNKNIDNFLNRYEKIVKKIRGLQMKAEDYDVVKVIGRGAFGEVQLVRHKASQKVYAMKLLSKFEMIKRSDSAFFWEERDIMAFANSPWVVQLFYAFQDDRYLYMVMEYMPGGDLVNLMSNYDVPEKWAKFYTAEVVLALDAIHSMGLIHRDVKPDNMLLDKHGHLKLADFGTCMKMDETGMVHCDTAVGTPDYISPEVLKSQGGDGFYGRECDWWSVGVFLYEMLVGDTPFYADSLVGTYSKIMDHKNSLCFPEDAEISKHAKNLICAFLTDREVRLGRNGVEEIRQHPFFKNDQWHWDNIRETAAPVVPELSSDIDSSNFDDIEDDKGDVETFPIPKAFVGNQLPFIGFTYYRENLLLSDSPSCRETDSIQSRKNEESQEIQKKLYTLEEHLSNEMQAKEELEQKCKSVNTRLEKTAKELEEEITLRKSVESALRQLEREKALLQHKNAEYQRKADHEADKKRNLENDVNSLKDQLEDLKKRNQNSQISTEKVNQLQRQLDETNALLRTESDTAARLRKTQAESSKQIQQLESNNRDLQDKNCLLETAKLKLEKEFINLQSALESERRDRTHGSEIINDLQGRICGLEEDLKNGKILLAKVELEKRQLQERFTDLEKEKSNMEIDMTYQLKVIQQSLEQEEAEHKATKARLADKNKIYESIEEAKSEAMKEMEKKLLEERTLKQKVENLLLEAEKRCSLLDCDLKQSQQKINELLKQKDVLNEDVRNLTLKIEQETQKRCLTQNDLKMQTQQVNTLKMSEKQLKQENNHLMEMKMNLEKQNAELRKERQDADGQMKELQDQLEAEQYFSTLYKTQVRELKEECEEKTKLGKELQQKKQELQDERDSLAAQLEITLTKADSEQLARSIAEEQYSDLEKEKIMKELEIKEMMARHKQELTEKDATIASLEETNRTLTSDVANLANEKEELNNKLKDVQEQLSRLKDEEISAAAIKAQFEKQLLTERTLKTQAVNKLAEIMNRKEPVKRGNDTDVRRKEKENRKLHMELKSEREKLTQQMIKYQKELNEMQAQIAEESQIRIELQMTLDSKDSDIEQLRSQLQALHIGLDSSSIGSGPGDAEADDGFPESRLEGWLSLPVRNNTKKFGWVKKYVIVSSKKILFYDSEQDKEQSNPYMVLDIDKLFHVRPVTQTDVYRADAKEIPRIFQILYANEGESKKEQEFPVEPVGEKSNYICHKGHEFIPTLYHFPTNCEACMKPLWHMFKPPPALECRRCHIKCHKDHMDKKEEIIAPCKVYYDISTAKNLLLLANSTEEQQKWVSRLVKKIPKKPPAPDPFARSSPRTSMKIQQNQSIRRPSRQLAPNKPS
Sequence of Rho kinase 1 (Q13464 whole entry): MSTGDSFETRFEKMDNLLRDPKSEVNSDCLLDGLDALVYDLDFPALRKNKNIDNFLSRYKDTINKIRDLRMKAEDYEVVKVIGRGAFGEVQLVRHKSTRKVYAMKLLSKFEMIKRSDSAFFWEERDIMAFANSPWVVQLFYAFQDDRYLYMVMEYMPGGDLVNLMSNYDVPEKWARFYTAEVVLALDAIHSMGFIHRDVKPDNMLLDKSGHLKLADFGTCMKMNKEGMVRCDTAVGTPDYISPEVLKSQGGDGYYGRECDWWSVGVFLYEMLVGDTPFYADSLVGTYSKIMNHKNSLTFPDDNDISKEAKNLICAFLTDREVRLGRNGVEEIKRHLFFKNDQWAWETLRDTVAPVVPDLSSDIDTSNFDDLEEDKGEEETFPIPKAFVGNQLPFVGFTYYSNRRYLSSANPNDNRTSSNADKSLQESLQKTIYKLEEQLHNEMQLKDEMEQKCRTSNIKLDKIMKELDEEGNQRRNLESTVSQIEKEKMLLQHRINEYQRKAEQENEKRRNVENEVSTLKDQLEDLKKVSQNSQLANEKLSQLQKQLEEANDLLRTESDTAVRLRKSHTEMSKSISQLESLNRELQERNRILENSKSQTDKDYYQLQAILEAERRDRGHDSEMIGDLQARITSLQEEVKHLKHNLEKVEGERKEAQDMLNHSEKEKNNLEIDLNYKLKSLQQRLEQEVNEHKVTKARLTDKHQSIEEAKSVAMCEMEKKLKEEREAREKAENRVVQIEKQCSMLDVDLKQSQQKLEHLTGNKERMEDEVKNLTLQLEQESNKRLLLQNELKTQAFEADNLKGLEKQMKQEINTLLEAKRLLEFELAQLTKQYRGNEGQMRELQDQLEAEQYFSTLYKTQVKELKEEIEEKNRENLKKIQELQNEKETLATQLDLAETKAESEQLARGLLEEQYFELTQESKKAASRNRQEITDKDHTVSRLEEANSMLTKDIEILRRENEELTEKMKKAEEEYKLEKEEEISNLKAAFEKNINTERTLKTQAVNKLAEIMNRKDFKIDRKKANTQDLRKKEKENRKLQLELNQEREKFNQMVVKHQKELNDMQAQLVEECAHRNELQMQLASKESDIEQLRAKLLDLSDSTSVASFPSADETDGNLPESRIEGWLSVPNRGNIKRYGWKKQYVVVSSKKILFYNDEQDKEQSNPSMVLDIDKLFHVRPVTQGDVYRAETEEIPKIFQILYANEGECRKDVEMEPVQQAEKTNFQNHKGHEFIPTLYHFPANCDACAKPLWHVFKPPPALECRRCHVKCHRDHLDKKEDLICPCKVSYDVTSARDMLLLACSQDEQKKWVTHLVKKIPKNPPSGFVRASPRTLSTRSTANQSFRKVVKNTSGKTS

Row | pKi [1] | pKi [2] | Structure (SMILES)
1 | 6.30 to 7.30 | 6.30 to 7.30 | CC1=C(C(=O)Nc2cc3cn[nH]c3cc2F)C(c2ccc(C(F)(F)F)c(F)c2)n2nnnc2N1 (single isomer, unassigned) [Example 40B, N-(6-fluoro-1H-indazol-5-yl)-7-(3-fluoro-4-(trifluoromethyl)phenyl)-5-methyl-4,7-dihydrotetrazolo[1,5-a]pyrimidine-6-carboxamide]
2 | < 6.30 | 6.30 to 7.30 | CC1=C(C(=O)Nc2ccc3cnccc3c2)C(c2ccc(C(F)(F)F)cc2)n2nc(CO)cc2N1 (single isomer, unassigned) [Example 43A, 2-(hydroxymethyl)-N-(isoquinolin-6-yl)-5-methyl-7-(4-(trifluoromethyl)phenyl)-4,7-dihydropyrazolo[1,5-a]pyrimidine-6-carboxamide]
3 | > 7.30 | > 7.30 | CC1=C(C(=O)Nc2ccc3cnccc3c2)C(c2ccc(C(F)(F)F)cc2)n2nc(CO)cc2N1 (single isomer, unassigned) [Example 43B, 2-(hydroxymethyl)-N-(isoquinolin-6-yl)-5-methyl-7-(4-(trifluoromethyl)phenyl)-4,7-dihydropyrazolo[1,5-a]pyrimidine-6-carboxamide]
4 | > 7.30 | > 7.30 | CC1=C(C(=O)Nc2ccc3cnccc3c2)C(C2Cc3ccccc3C2)n2nc(CO)cc2N1 (single isomer, unassigned) [Example 60A, 7-(2,3-dihydro-1H-inden-2-yl)-2-(hydroxymethyl)-N-(isoquinolin-6-yl)-5-methyl-4,7-dihydropyrazolo[1,5-a]pyrimidine-6-carboxamide]
5 | 6.30 to 7.30 | 6.30 to 7.30 | CC1=C(C(=O)Nc2ccc3cnccc3c2)C(C2Cc3ccccc3C2)n2nc(CO)cc2N1 (single isomer, unassigned) [Example 60B, 7-(2,3-dihydro-1H-inden-2-yl)-2-(hydroxymethyl)-N-(isoquinolin-6-yl)-5-methyl-4,7-dihydropyrazolo[1,5-a]pyrimidine-6-carboxamide]
6 | > 7.30 | > 7.30 | CC1=C(C(=O)Nc2ccc3cnccc3c2)C(c2ccc(Br)cc2)n2nc(CO)cc2N1 (single isomer, unassigned) [Example 61A, 7-(4-bromophenyl)-2-(hydroxymethyl)-N-(isoquinolin-6-yl)-5-methyl-4,7-dihydropyrazolo[1,5-a]pyrimidine-6-carboxamide]
7 | 6.30 to 7.30 | 6.30 to 7.30 | CC1=C(C(=O)Nc2ccc3cnccc3c2)C(c2ccc(Br)cc2)n2nc(CO)cc2N1 (single isomer, unassigned) [Example 61B, 7-(4-bromophenyl)-2-(hydroxymethyl)-N-(isoquinolin-6-yl)-5-methyl-4,7-dihydropyrazolo[1,5-a]pyrimidine-6-carboxamide]
8 | > 7.30 | > 7.30 | CC1=C(C(=O)Nc2ccc3cnccc3c2)C(c2ccc(Cl)cc2)n2nc(CO)cc2N1 (single isomer, unassigned) [Example 62A, 7-(4-chlorophenyl)-2-(hydroxymethyl)-N-(isoquinolin-6-yl)-5-methyl-4,7-dihydropyrazolo[1,5-a]pyrimidine-6-carboxamide]
9 | 6.30 to 7.30 | 6.30 to 7.30 | CC1=C(C(=O)Nc2ccc3cnccc3c2)C(c2ccc(Cl)cc2)n2nc(CO)cc2N1 (single isomer, unassigned) [Example 62B, 7-(4-chlorophenyl)-2-(hydroxymethyl)-N-(isoquinolin-6-yl)-5-methyl-4,7-dihydropyrazolo[1,5-a]pyrimidine-6-carboxamide]
10 | > 7.30 | > 7.30 | CC1=C(C(=O)Nc2ccc3cnccc3c2)C(c2ccc(C(F)(F)F)c(F)c2)n2nc(CO)cc2N1 (single isomer, unassigned) [Example 65A, 7-(3-fluoro-4-(trifluoromethyl)phenyl)-2-(hydroxymethyl)-N-(isoquinolin-6-yl)-5-methyl-4,7-dihydropyrazolo[1,5-a]pyrimidine-6-carboxamide]
11 | > 7.30 | > 7.30 | CC1=C(C(=O)Nc2ccc3cnccc3c2)C(c2ccc(C(F)(F)F)c(F)c2)n2nc(CO)cc2N1 (single isomer, unassigned) [Example 65B, 7-(3-fluoro-4-(trifluoromethyl)phenyl)-2-(hydroxymethyl)-N-(isoquinolin-6-yl)-5-methyl-4,7-dihydropyrazolo[1,5-a]pyrimidine-6-carboxamide]
12 | 6.30 to 7.30 | 6.30 to 7.30 | CC1=C(C(=O)Nc2ccc3[nH]ncc3c2)C(c2ccc(C(F)(F)F)cc2)n2nc(CO)cc2N1 (single isomer, unassigned) [Example 69A, 2-(hydroxymethyl)-N-(1H-indazol-5-yl)-5-methyl-7-(4-(trifluoromethyl)phenyl)-4,7-dihydropyrazolo[1,5-a]pyrimidine-6-carboxamide]
13 | > 7.30 | > 7.30 | CC1=C(C(=O)Nc2ccc3[nH]ncc3c2)C(c2ccc(C(F)(F)F)cc2)n2nc(CO)cc2N1 (single isomer, unassigned) [Example 69B, 2-(hydroxymethyl)-N-(1H-indazol-5-yl)-5-methyl-7-(4-(trifluoromethyl)phenyl)-4,7-dihydropyrazolo[1,5-a]pyrimidine-6-carboxamide]
14 | > 7.30 | > 7.30 | CC1=C(C(=O)Nc2ccc3[nH]ncc3c2)C(c2ccc(F)cc2)n2nc(CO)cc2N1 (single isomer, unassigned) [Example 71A, 7-(4-fluorophenyl)-2-(hydroxymethyl)-N-(1H-indazol-5-yl)-5-methyl-4,7-dihydropyrazolo[1,5-a]pyrimidine-6-carboxamide]
15 | < 6.30 | < 6.30 | CC1=C(C(=O)Nc2ccc3[nH]ncc3c2)C(c2ccc(F)cc2)n2nc(CO)cc2N1 (single isomer, unassigned) [Example 71B, 7-(4-fluorophenyl)-2-(hydroxymethyl)-N-(1H-indazol-5-yl)-5-methyl-4,7-dihydropyrazolo[1,5-a]pyrimidine-6-carboxamide]
16 | > 7.30 | > 7.30 | CC1=C(C(=O)Nc2ccc3cnccc3c2)C(C2COc3ccccc3O2)n2nc(CO)cc2N1 (single isomer, unassigned) [Example 72A, 7-(2,3-dihydrobenzo[b][1,4]dioxin-2-yl)-2-(hydroxymethyl)-N-(isoquinolin-6-yl)-5-methyl-4,7-dihydropyrazolo[1,5-a]pyrimidine-6-carboxamide]
17 | > 7.30 | > 7.30 | CC1=C(C(=O)Nc2ccc3cnccc3c2)C(C2COc3ccccc3O2)n2nc(CO)cc2N1 (single isomer, unassigned) [Example 72B, 7-(2,3-dihydrobenzo[b][1,4]dioxin-2-yl)-2-(hydroxymethyl)-N-(isoquinolin-6-yl)-5-methyl-4,7-dihydropyrazolo[1,5-a]pyrimidine-6-carboxamide]
18 | 6.30 to 7.30 | 6.30 to 7.30 | CC1=C(C(=O)Nc2ccc3cnccc3c2)C(C2COc3ccccc3O2)n2nc(CO)cc2N1 (single isomer, unassigned) [Example 72C, 7-(2,3-dihydrobenzo[b][1,4]dioxin-2-yl)-2-(hydroxymethyl)-N-(isoquinolin-6-yl)-5-methyl-4,7-dihydropyrazolo[1,5-a]pyrimidine-6-carboxamide]
19 | 6.30 to 7.30 | 6.30 to 7.30 | CC1=C(C(=O)Nc2ccc3cnccc3c2)C(C2COc3ccccc3O2)n2nc(CO)cc2N1 (single isomer, unassigned) [Example 72D, 7-(2,3-dihydrobenzo[b][1,4]dioxin-2-yl)-2-(hydroxymethyl)-N-(isoquinolin-6-yl)-5-methyl-4,7-dihydropyrazolo[1,5-a]pyrimidine-6-carboxamide]
20 | 6.30 to 7.30 | > 7.30 | CC1=C(C(=O)Nc2ccc3cnccc3c2)C(c2ccc(C(F)(F)F)c(F)c2)n2nc(C(=O)N(C)CCN3CCCCC3)cc2N1 (single isomer, unassigned) [Example 78A, 7-(3-fluoro-4-(trifluoromethyl)phenyl)-N6-(isoquinolin-6-yl)-N2,5-dimethyl-N2-(2-(piperidin-1-yl)ethyl)-4,7-dihydropyrazolo[1,5-a]pyrimidine-2,6-dicarboxamide]
21 | > 7.30 | > 7.30 | CC1=C(C(=O)Nc2ccc3cnccc3c2)C(c2ccc(C(F)(F)F)c(F)c2)n2nc(C(=O)N(C)CCN3CCCCC3)cc2N1 (single isomer, unassigned) [Example 78B, 7-(3-fluoro-4-(trifluoromethyl)phenyl)-N6-(isoquinolin-6-yl)-N2,5-dimethyl-N2-(2-(piperidin-1-yl)ethyl)-4,7-dihydropyrazolo[1,5-a]pyrimidine-2,6-dicarboxamide]
22 | 6.30 to 7.30 | 6.30 to 7.30 | CC1=C(C(=O)Nc2ccc3cnccc3c2)C(c2ccc(C(F)(F)F)c(F)c2)n2nc(CN(C)C)cc2N1 (single isomer, unassigned) [Example 94A, 2-((dimethylamino)methyl)-7-(3-fluoro-4-(trifluoromethyl)phenyl)-N-(isoquinolin-6-yl)-5-methyl-4,7-dihydropyrazolo[1,5-a]pyrimidine-6-carboxamide]
